Where “and” joins values, the source holds several entries; their conditions need not be identical. Equal entries are not always repeated. Where two headings read alike, the source gives them in different places.
What was measured:
[1] = tested on: Suit2-07 cells; test: Cell proliferation assay, GEM + ATR inhibitor (Incucyte confluence, 72 h); type: cell-based, human; conditions: Suit2-07; for EC50: Homo sapiens, 72 h; for Ratio: Response to Response vehicle (mean); for Ratio / Response: R1; for Curve bottom / Curve top: plateau of fitted curve, ratio drug/vehicle confluence;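 on all read-outs here: Suit2-07 cells grown in 96-well plates at 37 °C, 5% CO2, raw 72 h confluence taken without normalizing to starting confluence, each experiment done in triplicate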
Method: (§1) Cells were seeded at 5000 cells/well into 96-well flat bottom plates (Eppendorf) and allowed to attach overnight. […] Cells were incubated for 72 h at 37 °C and 5% CO2. Cell confluence readouts at 72 h were either normalized to their initial confluence using the Incucyte software (AsPC-1) or used without prior normalization (all others). […] Each experiment was performed in triplicates, the data was plotted as mean ± standard deviation (s.d.).

[2] = tested on: PANC-1 cells; test: as above; conditions: for EC50: Homo sapiens, mean of replicates; for Curve bottom / Curve top: PANC-1, plateau of fitted curve, ratio drug/vehicle confluence;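 on EC50: in combination experiments GEM is titrated while ATRi is held at a fixed sub-EC50 dose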;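 on all read-outs here: PANC-1 confluence at 72 h taken as raw values, not normalized to starting confluence, with each experiment run in triplicate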
Method: as §1

[3] = GEM+ATRi_dose3, GEM 30 nM + ATRi 30 nM
[4] = experiment ATRi (ATR inhibitor alone)

Nc1nn2cc(F)cnc2c1C(=O)Nc1cncc(F)c1N1CCC(C(=O)N2CCN(C3COC3)CC2)CC1 [Gartisertib]
EC50 ([1]; experiment ATRi (ATR inhibitor alone), -log10 of EC50 [M], read-out: pEC50 (converted)): 3.39e-07 M | EC50 ([1]; experiment ATRi (ATR inhibitor alone), mean (one replicate), read-out: EC50 mean): 3.39e-07 M | EC50 ([1]; experiment ATRi (ATR inhibitor alone), replicate R1, read-out: EC50): 3.39e-07 M | Ratio ([1]; GEM+ATRi_dose1, GEM 0 nM + ATRi 10 nM): 1.02 | Ratio ([1]; GEM+ATRi_dose1, GEM 1 nM + ATRi 10 nM): 1.01 | Ratio ([1]; GEM+ATRi_dose1, GEM 3 nM + ATRi 10 nM): 0.93 | Ratio ([1]; GEM+ATRi_dose1, GEM 10 nM + ATRi 10 nM): 0.23 | Ratio ([1]; GEM+ATRi_dose1, GEM 30 nM + ATRi 10 nM): 0.15 | Ratio ([1]; GEM+ATRi_dose1, GEM 100 nM + ATRi 10 nM): 0.15 | Ratio ([1]; GEM+ATRi_dose1, GEM 300 nM + ATRi 10 nM): 0.12 | Ratio ([1]; GEM+ATRi_dose1, GEM 1000 nM + ATRi 10 nM): 0.11 | Ratio ([1]; GEM+ATRi_dose1, GEM 3000 nM + ATRi 10 nM): 0.09 | Ratio ([1]; GEM+ATRi_dose2, GEM 0 nM + ATRi 3 nM): 0.98 | Ratio ([1]; GEM+ATRi_dose2, GEM 1 nM + ATRi 3 nM): 0.98 | Ratio ([1]; GEM+ATRi_dose2, GEM 3 nM + ATRi 3 nM): 0.26 | Ratio ([1]; GEM+ATRi_dose2, GEM 10 nM + ATRi 3 nM): 0.16 | Ratio ([1]; GEM+ATRi_dose2, GEM 30 nM + ATRi 3 nM): 0.13 | Ratio ([1]; GEM+ATRi_dose2, GEM 100 nM + ATRi 3 nM): 0.13 | Ratio ([1]; GEM+ATRi_dose2, GEM 300 nM + ATRi 3 nM): 0.11 | Ratio ([1]; GEM+ATRi_dose2, GEM 1000 nM + ATRi 3 nM): 0.11 | Ratio ([1]; GEM+ATRi_dose2, GEM 3000 nM + ATRi 3 nM): 0.09 | Ratio ([1]; GEM+ATRi_dose3, GEM 0 nM + ATRi 30 nM): 0.97 | Ratio ([1]; GEM+ATRi_dose3, GEM 1 nM + ATRi 30 nM): 0.93 | Ratio ([1]; GEM+ATRi_dose3, GEM 3 nM + ATRi 30 nM): 0.37 | Ratio ([1]; GEM+ATRi_dose3, GEM 10 nM + ATRi 30 nM): 0.18 | Ratio [1, 3]: 0.14 | Ratio ([1]; GEM+ATRi_dose3, GEM 100 nM + ATRi 30 nM): 0.13 | Ratio ([1]; GEM+ATRi_dose3, GEM 300 nM + ATRi 30 nM): 0.12 | Ratio ([1]; GEM+ATRi_dose3, GEM 1000 nM + ATRi 30 nM): 0.13 | Ratio ([1]; GEM+ATRi_dose3, GEM 3000 nM + ATRi 30 nM): 0.08 | Ratio ([1]; experiment ATRi, ATRi 3 nM, GEM 0 nM): 1.02 | Ratio ([1]; experiment ATRi, ATRi 10 nM, GEM 0 nM): 1.01 | Ratio ([1]; experiment ATRi, ATRi 30 nM, GEM 0 nM): 0.98 | Ratio ([1]; experiment ATRi, ATRi 100 nM, GEM 0 nM): 0.96 | Ratio ([1]; experiment ATRi, ATRi 300 nM, GEM 0 nM): 0.63 | Ratio ([1]; experiment ATRi, ATRi 1000 nM, GEM 0 nM): 0.22 | Ratio ([1]; experiment ATRi, ATRi 3000 nM, GEM 0 nM): 0.19 | Ratio ([1]; experiment ATRi, ATRi 10000 nM, GEM 0 nM): 0.12 | Response ([1]; GEM+ATRi_dose1, GEM 0 nM + ATRi 10 nM, in % (unit assumed)): 99.22 | Response ([1]; GEM+ATRi_dose1, GEM 1 nM + ATRi 10 nM, in % (unit assumed)): 98.36 | Response ([1]; GEM+ATRi_dose1, GEM 3 nM + ATRi 10 nM, in % (unit assumed)): 90.74 | Response ([1]; GEM+ATRi_dose1, GEM 10 nM + ATRi 10 nM, in % (unit assumed)): 21.98 | Response ([1]; GEM+ATRi_dose1, GEM 30 nM + ATRi 10 nM, in % (unit assumed)): 14.67 | Response ([1]; GEM+ATRi_dose1, GEM 100 nM + ATRi 10 nM, in % (unit assumed)): 14.71 | Response ([1]; GEM+ATRi_dose1, GEM 300 nM + ATRi 10 nM, in % (unit assumed)): 11.45 | Response ([1]; GEM+ATRi_dose1, GEM 1000 nM + ATRi 10 nM, in % (unit assumed)): 10.53 | Response ([1]; GEM+ATRi_dose1, GEM 3000 nM + ATRi 10 nM, in % (unit assumed)): 8.70 | Response ([1]; GEM+ATRi_dose2, GEM 0 nM + ATRi 3 nM, in % (unit assumed)): 95.38 | Response ([1]; GEM+ATRi_dose2, GEM 1 nM + ATRi 3 nM, in % (unit assumed)): 96.21 | Response ([1]; GEM+ATRi_dose2, GEM 3 nM + ATRi 3 nM, in % (unit assumed)): 25.36 | Response ([1]; GEM+ATRi_dose2, GEM 10 nM + ATRi 3 nM, in % (unit assumed)): 15.98 | Response ([1]; GEM+ATRi_dose2, GEM 30 nM + ATRi 3 nM, in % (unit assumed)): 13.06 | Response ([1]; GEM+ATRi_dose2, GEM 100 nM + ATRi 3 nM, in % (unit assumed)): 13.09 | Response ([1]; GEM+ATRi_dose2, GEM 300 nM + ATRi 3 nM, in % (unit assumed)): 10.34 | Response ([1]; GEM+ATRi_dose2, GEM 1000 nM + ATRi 3 nM, in % (unit assumed)): 10.34 | Response ([1]; GEM+ATRi_dose2, GEM 3000 nM + ATRi 3 nM, in % (unit assumed)): 9.00 | Response ([1]; GEM+ATRi_dose3, GEM 0 nM + ATRi 30 nM, in % (unit assumed)): 94.90 | Response ([1]; GEM+ATRi_dose3, GEM 1 nM + ATRi 30 nM, in % (unit assumed)): 91.25 | Response ([1]; GEM+ATRi_dose3, GEM 3 nM + ATRi 30 nM, in % (unit assumed)): 36.47 | Response ([1]; GEM+ATRi_dose3, GEM 10 nM + ATRi 30 nM, in % (unit assumed)): 17.41 | Response [1, 3]: 13.78 | Response ([1]; GEM+ATRi_dose3, GEM 100 nM + ATRi 30 nM, in % (unit assumed)): 12.30 | Response ([1]; GEM+ATRi_dose3, GEM 300 nM + ATRi 30 nM, in % (unit assumed)): 12.12 | Response ([1]; GEM+ATRi_dose3, GEM 1000 nM + ATRi 30 nM, in % (unit assumed)): 12.34 | Response ([1]; GEM+ATRi_dose3, GEM 3000 nM + ATRi 30 nM, in % (unit assumed)): 7.88 | Curve bottom [1, 4]: 1.01 | Curve top [1, 4]: 0.15 | Response ([1]; experiment ATRi, ATRi 3 nM, GEM 0 nM, in % (unit assumed)): 99.33 | Response ([1]; experiment ATRi, ATRi 10 nM, GEM 0 nM, in % (unit assumed)): 98.82 | Response ([1]; experiment ATRi, ATRi 30 nM, GEM 0 nM, in % (unit assumed)): 95.35 | Response ([1]; experiment ATRi, ATRi 100 nM, GEM 0 nM, in % (unit assumed)): 93.53 | Response ([1]; experiment ATRi, ATRi 300 nM, GEM 0 nM, in % (unit assumed)): 61.81 | Response ([1]; experiment ATRi, ATRi 1000 nM, GEM 0 nM, in % (unit assumed)): 21.20 | Response ([1]; experiment ATRi, ATRi 3000 nM, GEM 0 nM, in % (unit assumed)): 18.17 | Response ([1]; experiment ATRi, ATRi 10000 nM, GEM 0 nM, in % (unit assumed)): 11.75 | Curve bottom ([1]; experiment GEM+ATRi_dose1): 1.01 | Curve top ([1]; experiment GEM+ATRi_dose1): 0.12 | Curve bottom ([1]; experiment GEM+ATRi_dose2): 0.98 | Curve top ([1]; experiment GEM+ATRi_dose2): 0.12 | Curve bottom ([1]; experiment GEM+ATRi_dose3): 0.98 | Curve top ([1]; experiment GEM+ATRi_dose3): 0.13 | EC50 ([2]; PANC-1, 72 h, read-out: EC50 mean [nM], PANC-1, experiment ATRi (ATR inhibitor alone)): 7880 nM | EC50 ([2]; PANC-1, read-out: EC50 mean [nM], PANC-1, experiment ATRi (ATR inhibitor alone)): 7880 nM | EC50 ([2]; PANC-1, read-out: EC50 mean [nM], PANC-1, experiment GEM+ATRi_dose1): 4.13 nM | EC50 ([2]; PANC-1, read-out: EC50 mean [nM], PANC-1, experiment GEM+ATRi_dose2): 8.99 nM | EC50 ([2]; PANC-1, read-out: EC50 mean [nM], PANC-1, experiment GEM+ATRi_dose3): 6.69 nM | Curve bottom [2, 4]: 1.03 and 0.99 and 0.93 | Curve top ([2]; experiment GEM+ATRi_dose1): 0.48 and 0.43 and 0.49 | Curve top ([2]; experiment GEM+ATRi_dose2): 0.47 and 0.43 and 0.52 | Curve bottom ([2]; experiment GEM+ATRi_dose3): 0.95 and 0.86 and 1.00 | Curve top ([2]; experiment GEM+ATRi_dose3): 0.47 and 0.45 and 0.50

From article PMC11876601 (Molecular Systems Biology, 2025)
